Consider 3 compounds from US4939134A, “26-aminocholesterol and derivatives and analogs thereof in the regulation of cholesterol accumulation in body tissue” (New York University, priority 1988, dated 1990).

Structures are written as SMILES. “Also recorded” adds a separate entry of the source.

One data set concerns Human Fibroblasts. The experiment in a line: Total cell cholesterol and percent esterified cholesterol in human fibroblasts. It is filed as cell-based. Particulars: 96 h, n = 3. The method, then:
Normal LDLR(+) human fibroblasts (GM3440) were obtained from the National Institute of General Medical Sciences Human Genetic Cell Repository. Stock fibroblast monolayers were maintained in T-75 disposable Nunc flasks, in a medium comprising 10 ml of MEM (Eagle's Minimum Essential Medium with Earl's salts, pH 7.4) supplemented with 10% (v/v) fetal bovine serum (FBS), 2% (v/v) non-essential and essential amino acids, 1% (v/v) MEM vitamins, 1% L-glutamine (292 ug/ml), 1% penicillin (100 U/ml)-streptomycin (100 ug/ml). The fibroblast stock was maintained at 37° C. in a humidified atmosphere of 5% CO2 and 95% air.
For experiments using fibroblasts, confluent stock cultures (5-18 passages) were washed once with Dulbecco's PBS (phosphate buffered saline) prior to the addition of 3 ml aliquots of experimental MEM containing 25% (v/v) D2 O, 9% (v/v) dilapidated FBS, 1% FBS (v/v), 1% MEM vitamins and L-glutamine, and 2% of essential and non-essential amino acids and 20 mM HEPES buffer.
(§1) The fibroblast and hepatoblastoma cells were cultured in media containing 25% D2 O and 1% FBS in order to determine de novo cholesterol synthesis under conditions that permit receptor mediated cholesterol transport, according to the method of Easterman & Javitt et al., J. Lipid Res., 26: 950-954 (1985). Dish cultures of each cell type were prepared, and 26-aminocholesterol, dissolved in N,N-dimethylformamide (DMF, 9 ul per dish, 0.3% v/v) was added to each culture. The cells were then grown to confluence (96 hours, day 5). […] Duplicate or triplicate dishes containing 9 ul of DMF, but without 26-aminocholesterol, were used as controls.
(§2) After 96 hours of incubation, medium was removed from the cell cultures, and the cells were washed with Dulbecco's PBS and were harvested with 0.05% trypsin - 0.02% EDTA. The protease was deactivated with an equivolume aliquot of soybean trypsin inhibitor, and the resulting cell suspension was centrifuged for 5 minutes at 500xg. An internal standard of 5B-cholestan-3B-ol was added to the pellets prior to extraction with an 8:4:3 chloroform:methanol:water Folch mixture, as described in Folch et al., J. Biol. Chem., 266: 497-509 (1957). An aliquot of the extract was blown to dryness under nitrogen and silylated with 2:1:1 MSTFA (a sylated reagent supplied by Pierce Co.): toluene:-pyridine. Free cholesterol was determined by gas-liquid chromatography (GLC) on a Perkin-Elmer capillary gas-liquid chromatography model 8320 fitted with a 20 m DE-1 methylsilicon glass column (Supelco). The remaining extract was dried and saponified with 2% ethanolic KOH at 80° C. for one hour. The […] was then re-extracted and total cholesterol was measured by GLC after silylation. Cholesterol ester was calculated as the difference between the total and free cholesterol determinations. Newly synthesized cholesterol was determined by GLC-MS isotope mass ratios, using a Hewlett-Packard GC-MS spectrometer model 5890 fitted with DB-1 methyl silicon 0.18 i.d. 20 m glass column (Supelco), according to the method of J. Lipid. Res., 26: 950-954, supra. […]

For the next data set, the system named is HepG2 Cells. The experiment in a line: De novo cholesterol synthesis in HepG2 hepatocytes (D2O). Particulars: for % DE NOVO (De Novo Cholesterol Synthesis): HepG2, 96 h, n = 3, untreated 55.8; for de novo cholesterol synthesis (in words): HepG2 / human hepatocytes. It is filed as cell-based, human.
Text: HepG2 cells were obtained from Dr. Barbara Knowles of the Wistar Institute, Pennsylvania. The HepG2 stock monolayers were maintained under the same conditions as the fibroblast monolayers, in a medium comprising MEM supplemented with 10% heat-inactivated FBS, and 1% (v/v) each of penicillin-streptomycin solution, non-essential and essential amino acids, and L-glutamine.
For experiments using HepG2 cells, confluent stock monolayers were washed once with Dulbecco's PBS, dissociated with 0.05-0.02% trypsin-EDTA followed by treatment with deoxyribonuclease I (0.1%), and were seeded (3.0×10^6) under identical conditions. The experimental MEM contained 25% (v/v) D2 O, 9% (v/v) delipidated FBS, and 1% (v/v) each of heat-inactivated FBS, penicillin-streptomycin, essential and non-essential amino acids, L-glutamine and 20 mM HEPES.
as §1, §2

The subject of data set [1] is fibroblast and hepatoblastoma cells. It is filed as cell-based, human. The method, then:
Lipid Res., 26: 950-954 (1985). Dish cultures of each cell type were prepared, and 26-aminocholesterol, dissolved in N,N-dimethylformamide (DMF, 9 ul per dish, 0.3% v/v) was added to each culture. The cells were then grown to confluence (96 hours, day 5). […] Duplicate or triplicate dishes containing 9 ul of DMF, but without 26-aminocholesterol, were used as controls.

The next data set has as its system HMG CoA reductase. The experiment in a line: HMG CoA reductase activity in fibroblasts. It is filed as cell-based.
The test system of data set [2] is DNA synthesis and cell growth. Particulars: mechanism appears independent of HMG CoA reductase activity; cited from earlier work.

Consider `CC(CO)CCC[C@@H](C)[C@H]1CC[C@H]2[C@@H]3CC=C4C[C@@H](O)CC[C@]4(C)[C@H]3CC[C@]12C` (stereo partly drawn) [26-OH, 26-hydroxycholesterol], for which, in the data set with Human Fibroblasts (0.625 uM), the “% ESTER (Percent Esterified Cholesterol)” value amounted to 28.7% and the “TOTAL CHOLESTEROL” value was 24.7 +/- 2.8 ug cholesterol per mg cell pro. Further, the “% DE NOVO (De Novo Cholesterol Synthesis)” value (“% DE NOVO” below) in the data set with HepG2 Cells (0.625 uM) is reported as 57.1%. In the data set on HepG2 Cells, the “de novo cholesterol synthesis (in words)” value was “do not provide a similar reduction”.

Turning to `C[C@@H](CN)CCC[C@@H](C)[C@H]1CC[C@H]2[C@@H]3CC=C4C[C@@H](O)CC[C@]4(C)[C@H]3CC[C@]12C` [26-NH2, 26-aminocholesterol], the entries for the “% ESTER (Percent Esterified Cholesterol)” value in the data set with Human Fibroblasts (0.156 uM), in the data set with Human Fibroblasts (0.312 uM) and in the data set on Human Fibroblasts (0.625 uM) were 26.4%, 18.6% and 6.4%, respectively. For the same compound, the “TOTAL CHOLESTEROL” value in the data set with Human Fibroblasts (0.156 uM) is 27.9 +/- 5.3 ug cholesterol per mg cell pro; in the data set on Human Fibroblasts (0.312 uM), 31.5 +/- 6.1 ug cholesterol per mg cell pro; in the data set with Human Fibroblasts (0.625 uM), 20.3 +/- 6.4 ug cholesterol per mg cell pro. In addition, the “% DE NOVO” value in the data set with HepG2 Cells (0.156 uM) is on record as 38.3%; with HepG2 Cells (0.312 uM) it was 45.1%; with HepG2 Cells (0.625 uM), 42.0%. Besides, the “de novo cholesterol synthesis (in words)” value in the data set on HepG2 Cells was “do not provide a similar reduction; also recorded: no impact”. The “effect on cell growth” value in data set [1] is reported as “No effect on cell growth was observed”. Further, in the data set on HMG CoA reductase, the “HMG CoA reductase activity” value is “inhibit HMG CoA reductase activity”. For the same compound, the “DNA synthesis and cell growth” value in data set [2] is “downregulate DNA synthesis and cell growth”.

Regarding `CC(CS)CCC[C@@H](C)[C@H]1CC[C@H]2[C@@H]3CC=C4C[C@@H](O)CC[C@]4(C)[C@H]3CC[C@]12C` (stereo partly drawn) [26-SH], the “% ESTER (Percent Esterified Cholesterol)” value in the data set on Human Fibroblasts (5.0 uM) came to 13.6%; in the data set with Human Fibroblasts (10.0 uM), 31.1%; in the data set on Human Fibroblasts (20.0 uM) it was 33.1%. In addition, the “TOTAL CHOLESTEROL” value in the data set on Human Fibroblasts (5.0 uM) was 26.0 +/- 1.7 ug cholesterol per mg cell pro; in the data set with Human Fibroblasts (10.0 uM), 31.3 + /- 4.5 ug cholesterol per mg cell pro; with Human Fibroblasts (20.0 uM) it was 26.1 +/- 1.0 ug cholesterol per mg cell pro. The “% DE NOVO” value in the data set with HepG2 Cells (5.0 uM) stood at 49.7%; in the data set with HepG2 Cells (10.0 uM) it was 47.9%; in the data set on HepG2 Cells (20.0 uM), 41.9%. In the data set on HepG2 Cells, the “de novo cholesterol synthesis (in words)” value is on record as “no impact”.
